US20060046972A1, “Cytotoxic nucleoside analog compound 003 for treating cancer” (Parker Hughes Institute, priority 2004, published 2006)

Columns and labels:
[1] = Acute toxicity of intraperitoneal bolus doses in CD-1 mice; format: in vivo; settings: female, CD-1, mouse, in vivo, ip; single i.p. bolus; not reached at highest dose
Procedure: 1.2.8 Animals Female CD-1 mice (Body weight: ˜25 g; Age: 7 week old) were purchased, from Charles River Laboratories (Willmington, Mass., USA). MMTV Neu-mice [FVB/N-TgN(MMTV neu)202MUL; Jackson Laboratory, Bar Harbor, Me.] were bred to produce multiple litters. All mice were housed in microisolator cages (Lab Products, Inc., Maywood, N.Y., USA) containing autoclaved bedding in a controlled specific pathogen-free (SPF) environment (12-h light/12-h dark photoperiod, 22±1° C., 60±10% relative humidity), which is fully accredited by the USDA (United States Department of Agriculture). Adult male Lewis rats (Body weight: ˜160 g) were obtained from the specific pathogen-free (SPF) breeding facilities of Harlan Sprague Dawley (Indianapolis, Id., USA) at 14 weeks of age. All husbandry and experimental contact made with the mice and rats maintained SPF conditions. The rats were kept in microisolater cages (Allentown Caging Equipment Co., Inc., Allentown, N.J., USA) containing autoclaved food, water, and bedding. Animal studies were approved by Parker Hughes Institute Animal Care and Use Committee and all animal care procedures 1.5 conformed to the Guide for the Care and Use of Laboratory Animals (National Research Council, National Academy Press, Washington D.C. 1996, USA).
The toxicity profile of Compound 003 in CD-1 mice and Lewis rats was examined, using standard procedures as previously reported for other experimental drugs (Uckun, et al., 2003, Arzneimittelforschun. 53:357; Uckun, et al., 2002, Clin Cancer Res. 8: 1224; Uckun, et al., 2002, Antimicrob Agents Chemother. 46:3428). In brief, mice and rats were treated with intraperitoneal injections of vehicle or Compound 003 at multiple dose levels. Compound 003 was administered as a 0.2 mL (for mice) or 0.5 mL (for rats) bolus injection containing 10% DMSO as a vehicle. Animals were allowed free access to autoclaved standard pellet food and tap water throughout the experiments and monitored daily for morbidity and mortality. Animals were electively sacrificed on day 7 or day 30 to determine the toxicity of Compound 003 by examining their blood chemistry profiles, blood counts, and evaluating multiple organs for the presence of toxic lesions. Blood was collected by intracardiac puncture following anesthesia with ketamine:xylazine and immediately heparinized. The blood chemistry profiles were examined using a Synchron CX5CE Chemical Analyzer (Beckman Instruments, Inc., Fullerton, Calif., USA). Blood counts (red blood cells [RBC], white blood cells [WBC] and platelets [Plt]) were determined using a HESKA Vet ABC-Diff Hematology Analyzer (HESKA Corporation, Fort Collins, Colo., USA). Absolute neutrophil counts (ANC) and absolute lymphocyte counts (ALC) were calculated from WBC values after determining the percentages of neutrophils and lymphocytes by a manual differential count. At the time of necropsy, […] from mice (bone, bone marrow, brain, cecum, heart, kidney, large intestine, liver, lung, lymph node, ovary, pancreas, skeletal muscle, skin, small intestine, spleen, stomach, thymus, thyroid gland, urinary bladder, and uterus, as available) and 21 different tissues from rats (bone, bone marrow, brain, coagulating gland, epididymis, heart, large intestine, small intestine, kidney, liver, lung, pancreas, peripheral nerve/spinal nerve, skeletal muscle, skin, spinal cord, spleen, stomach, testes, thymus, urinary bladder) were collected within 15 minutes after sacrifice, gross pathological findings were documented, organs were preserved in 10% neutral phosphate buffered formalin, and processed for histopathological examination. For histopathologic studies, formalin fixed tissues were dehydrated and embedded in paraffin by routine methods. Glass slides with affixed 4-5 micron tissue sections were prepared and stained with Hemotoxylin and Eosin (H&E). […]

BT20 cells = assay: Cellular uptake of Compound 003; format: in vitro ADME, human; settings: 50 μM, 1 hr
Excerpt: Intracellular metabolism of Compound 003 was studied in CEM T-lineage lymphoma cell line, BT20 breast cancer cell line, T98 glioblastoma cell line, and Nalm-6 B-lineage leukemia cell line. CEM and Nalm6 cells were maintained in RPMI supplemented with 10% fetal bovine serum, and 1% penicillin/streptomycin. BT20 and T98 cells w.ere cultured in a medium composed of MEM, 10% fetal bovine serum, 0.1-mM of nonessential amino acids and Earles salts, and 1% penicillin/streptomycin. CEM and Nalm6 cells at a density of 10^6 cells per ml were utilized in the drug metabolism study. BT20 and T98 cells were seeded in 6-cm petri-dishes at 4 million cells and 2 million cells per plate, respectively, the day before the experiment. Either one plate of adherent cells or 10 million non-adherent cells was utilized at each time point. Cells were incubated with various concentrations of the compounds up to 24 hrs at 37° C. After incubation, cells were washed 2 times with ice-cold PBS, and extracted by addition of 0.5-1 ml of 60% methanol. […] With efflux experiments, cells 1×10^6/mL (the same density as in the uptake study) were incubated with 100 μM Compound 003 for 1 hr, washed 2 times with ice-cold PBS, and resuspended with culture medium without drug, and the metabolite efflux from cells to the medium was measured after 6 hr of incubation.

Question: With COC(=O)C(C)NP(=O)(OCC1OC(n2cc(C)c(=O)[nH]c2=O)CC1N=[N+]=[N-])Oc1ccc(OC)cc1 (centres unmarked) [Compound 003, 3′-azidothymidine 5′-[p-methoxyphenylmethoxyalaninyl phosphate]] as the compound, how does the LD50 [1] read?
Answer: The LD50 was greater than 80 mg/kg.

Question: And the “uptake of Compound 003, BT20 relative to Nalm6 and CEM cells” value (BT20 cells)?
Answer: Its value is “about 2 fold”.
